Data set [1] deals with ECV 304 endothelial cells. In words: Examination of endothelial capillary formation. In kind it is cell-based. Particulars: for selectivity index: inhibits the capillary formation better than the cell proliferation, in relation to the borrelidin: ECV 304, from ratios of concentrations inhibiting cell proliferation in 50% and capillary formation, relative to borrelidin. As for the experimental part:
Basal membrane protein gel prepared from murine EHS tumor, which induces capillary formation, was put onto ECV 304 endothelial cells. The treatment with the borrelidin and the novel borrelidin derivatives of general formula (I) according to the invention was carried out in the same way as in case of the examination of cell proliferation. The extent by which the cells take part in the capillary formation was examined microscopically and by the aid of a morphometrical program, and the thus-obtained data were expressed in percent of the untreated control.
Namely, it has been stated that, relating to borrelidin, the cell-proliferation-inhibiting effect of the novel derivatives of general formula (I) definitely decreases whereas the capillary-formation-inhibiting effect changes only in a small degree or not at all. The relative degree of selectivity was determined for each compound by […] the ratios of the active agent concentrations that inhibit the cell proliferation in 50% and which inhibit the capillary formation.

The subject of data set [2] is Lewis lung adenocarcinoma. In words: Lewis lung adenocarcinoma metastasis model. In kind it is in vivo. Particulars: for inhibition of the increase of micrometastases: one fifth of the toxic dose.
The test system of data set [3] is mouse colon adenocarcinoma cells transplanted into the spleen. In words: Colon 38 spleen-liver metastasis model. In kind it is in vivo. Particulars: subtoxic administration. The source says:
2. In a colon 38 spleen-liver model [Dong, Z. et al., J. Natl. Cancer Inst.

For data set [4], the system named is cell lines WiDr of human colon cancer. The settings on record: cited from earlier work.
Data set [5] deals with PC-3 of human prostate cancer. The settings on record: cited from earlier work.
Data set [6] has as its system cells forming capillary tubules. The settings on record: cited from earlier work.
The conditions of data set [7]: in vivo; cited from earlier work.

The structures appear in SMILES notation.

For `C[C@@H]1C[C@H](C)C[C@H](C)[C@@H](O)CC(=O)O[C@H]([C@@H]2CCC[C@H]2C(=O)OCCN2CCOCC2)C/C=C/C=C(/C#N)[C@H](O)[C@@H](C)C1` [Example 1, Borrelidin-2-morpholinoethyl ester], the “selectivity index: inhibits the capillary formation better than the cell proliferation, in relation to the borrelidin” value in data set [1] is recorded as 60 times.
Turning to `CC1CC(C)CC(C)C(O)C(C#N)=CC=CCC(C2CCCC2C(=O)OCCc2ccccn2)OC(=O)CC(O)C(C)C1` (stereo not drawn) [Example 2, Borrelidin-2-(2-pyridyl)-ethyl ester], in data set [1], the “selectivity index: inhibits the capillary formation better than the cell proliferation, in relation to the borrelidin” value was 7.5 times.
On to `CC1CC(C)CC(C)C(O)C(C#N)=CC=CCC(C2CCCC2C(=O)NCCN2CCOCC2)OC(=O)CC(O)C(C)C1` (stereo not drawn) [Example 4, Borrelidin 2-morpholinoethyl amide], for which the “selectivity index: inhibits the capillary formation better than the cell proliferation, in relation to the borrelidin” value in data set [1] is listed as 6 times.
Consider `CC1CC(C)CC(C)C(O)CC(=O)OC(C2CCCC2C(=O)NCc2cccnc2)C(C#N)=CC=CCC(O)C(C)C1` (stereo not drawn) [Example 15, Borrelidin-3-picolylamide], for which the “inhibition of the increase of micrometastases” value in data set [2] (intraperitoneal administration) and in data set [2] (per os administration) was “inhibited very considerably” in each case. In addition, the “metastasis-forming ability of mouse colon adenocarcinoma cells transplanted into the spleen” value in data set [3] was “considerably decreased”.
Consider `C[C@@H]1C[C@H](C)C[C@H](C)[C@@H](O)CC(=O)O[C@H]([C@@H]2CCC[C@H]2C(=O)O)C/C=C/C=C(/C#N)[C@H](O)[C@@H](C)C1` [borrelidin, 2′-(7-cyano-8,16-dihydroxy-9,11,13,15-tetramethyl-18-oxo-oxacyclooctadeca-4,6-dien-2-yl)-cyclopentane-1′-carboxylic acid], for which the “difference in sensitivity of proliferation and capillary formation by the endothelial cells, in favour of capillary formation” value in data set [1] (endothelial cells) was “about a five fold difference”. Also, in data set [2] (Lewis lung adenocarcinoma model), the “inhibition of the propagation of metastatic nodules formed after removing the primary tumour in lung” value was “inhibited in a very small degree”. Also, the “effectiveness against cell line” value in data set [4] and in data set [5] was “effective” in each case. The angiogenesis-inhibiting effect result in data set [6] was “induces the apoptosis of the cells forming capillary tubules”. For the same compound, the LD50 value result in data set [7] is “medium”.

Source of the values: patent US6815465B1, “Heterocyclic compounds inhibiting angiogenesis” (IVAX International GmbH, priority 1999, dated 2004).
